Assay results as given in patent publication US8871681B2, “Herbicidal compositions comprising 4-amino-3-chloro-5-fluoro-6-(4-chloro-2-fluoro-3-methoxyphenyl) pyridine-2-carboxylic acid or a derivative thereof and certain sulfonylureas” (Dow AgroSciences LLC, priority 2012, dated 2014).

Experiments:
[1] = tested on: IPOHE (Ipomoea hederacea, ivyleaf morningglory); assay: Postemergence foliar-applied weed control, direct seeded rice, greenhouse (Example I); assay type: in vivo, Ipomoea hederacea Jacq.
Text: (§1) Seeds or nutlets of the desired test plant species were planted in a soil matrix prepared by mixing a loam or sandy loam soil (e.g., 28.6 percent silt, 18.8 percent clay, and 52.6 percent sand, with a pH of about 5.8 and an organic matter content of about 1.8 percent) and calcareous grit in an 80 to 20 ratio. The soil matrix was contained in plastic pots with a volume of 1 quart and a surface area of 83.6 square centimeters (cm^2). When required to ensure good germination and healthy plants, a fungicide treatment and/or other chemical or physical treatment was applied. The plants were grown for 8-22 days in a greenhouse with an approximate 14 h photoperiod which was maintained at about 29° C. during the day and 26° C. during the night. Nutrients (Peters Excel® 15-5-15 5-Ca 2-Mg and iron chelate) were applied in the irrigation solution as needed and water was added on a regular basis. Supplemental lighting was provided with overhead metal halide 1000-Watt lamps as necessary. The plants were employed for testing when they reached the first through fourth true leaf stage.
(§2) Treatments consisted of the acid or esters of 4-amino-3-chloro-5-fluoro-6-(4-chloro-2-fluoro-3-methoxy-phenyl)pyridine-2-carboxylic acid (Compound A), each formulated as an SC, and various herbicidal components alone and in combination. Forms of compound A were applied on an acid equivalent basis.
(§3) Other herbicidal components were applied on an active ingredient basis and included acetolactate synthase (ALS)-inhibiting herbicides (sulfonylurea chemical class) azimsulfuron formulated as Gulliver®, bensulfuron-methyl formulated as Londax® 60DF, cyclosulfamuron (technical material), ethoxysulfuron formulated as Sunrice® 15 WDG, flazasulfuron formulated as Katana®, flucetosulfuron formulated as Sukedachi® 1KG G, foramsulfuron formulated as Option®, imazosulfuron formulated as Brazzos® WG, iodosulfuron-methyl-sodium formulated as Hussar®, metsulfuron-methyl formulated as Lorate®, nicosulfuron formulated as Accent®, orthosulfamuron formulated as Strada® WG, primisulfuron-methyl (technical material), propyrisulfuron formulated as Zeta One®, rimsulfuron formulated as Matrix® WG, sulfometuron-methyl formulated as Oust®, and trifloxysulfuron-sodium formulated as Monument® 75WG.
(§4) Treatment requirements were calculated based upon the rates being tested, the concentration of active ingredient or acid equivalent in the formulation, and a 12 mL application volume at a rate of 187 L/ha.
(§5) For treatments comprised of formulated compounds, measured amounts of compounds were placed individually in 25 mL glass vials and diluted in a volume of 1.25% (v/v) Agri-Dex® crop oil concentrated to obtain 12× stock solutions. […] Application solutions were prepared by adding an appropriate amount of each stock solution (e.g., 1 mL) and diluted to the appropriate final concentrations with the addition of 10 mL of an aqueous mixture of 1.25% (v/v) crop oil concentrate so that the final spray solutions contained 1.25+/−0.05% (v/v) Agrcrop oil concentrate.
(§6) For treatments comprised of formulated and technical compounds, weighed amounts of the technical materials were placed individually in 25 mL glass vials and dissolved in a volume of 97:3 v/v acetone/DMSO to obtain 12× stock solutions, and measured amounts of the formulated compounds were placed individually in 25 mL glass vials and diluted in a volume of 1.25% (v/v) crop oil concentrate to obtain 12× stock solutions. […] Application solutions were prepared by adding an appropriate amount of each stock solution (e.g., 1 mL) and diluted to the appropriate final concentrations with the addition of an appropriate amount of an aqueous mixture of 1.5% (v/v) crop oil concentrate so that the final spray solutions contained 1.25% (v/v) crop oil concentrate. […]

[2] = tested on: VIOTR (Viola tricolor, wild pansy); assay: Post-emergence foliar-applied weed control in cereal crops, greenhouse (Example III); assay type: in vivo, Viola tricolor (L.)
Method: (§7) Seeds of the desired test plant species were planted in Sun Gro MetroMix® 306 planting mixture, which typically has a pH of 6.0 to 6.8 and an organic matter content of about 30 percent, in plastic pots with a surface area of 103.2 square centimeters (cm^2). When required to ensure good germination and healthy plants, a fungicide treatment and/or other chemical or physical treatment was applied. The plants were grown for 7-36 days in a greenhouse with an approximate 14 hour photoperiod which was maintained at about 18° C. during the day and 17° C. during the night. Nutrients and water were added on a regular basis and supplemental lighting was provided with overhead metal halide 1000-Watt lamps as necessary. The plants were employed for testing when they reached the second or third true leaf stage.
(§8) Treatments consisted of the benzyl ester of 4-amino-3-chloro-5-fluoro-6-(4-chloro-2-fluoro-3-methoxy-phenyl)pyridine-2-carboxylic acid (Compound A), formulated as an SC (suspension concentrate), and a second cereal herbicide alone and in combination.
(§9) Measured aliquot of benzyl ester of 4-amino-3-chloro-5-fluoro-6-(4-chloro-2-fluoro-3-methoxy-phenyl)pyridine-2-carboxylic acid (Compound A) was placed in 25 milliliter (mL) glass vials and diluted in a volume of 1.25% (v/v) Agri-dex crop oil concentrated to obtain stock solutions. Compound requirements are based upon a 12 mL application volume at a rate of 187 liters per hectare (L/ha). Spray solutions of the second cereal herbicide and experimental compound mixtures were prepared by adding the stock solutions to the appropriate amount of dilution solution to form 12 mL spray solution with active ingredients in two- and three-way combinations. Formulated compounds were applied to the plant material with an overhead Mandel track sprayer equipped with an 8002E nozzle calibrated to deliver 187 L/ha over an application area of 0.503 square meters (m^2) at a spray height of 18 inches (46 cm) above average plant canopy. Control plants were sprayed in the same manner with the solvent blank.
(§10) The treated plants and control plants were placed in a greenhouse as described above and watered by sub-irrigation to prevent wash-off of the test compounds. After 20-22 days, the condition of the test plants as compared with that of the control plants was determined visually and scored on a scale of 0 to 100 percent where 0 corresponds to no injury and 100 corresponds to complete kill.
(§11) Colby's equation was used to determine the herbicidal effects expected from the mixtures (Colby, S. R. 1967. Calculation of the synergistic and antagonistic response of herbicide combinations. Weeds 15:20-22.).
(§12) The following equation was used to calculate the expected activity of mixtures containing two active ingredients, A and B: Expected=A+B−(A×B/100)

[3] = tested on: CIRAR (Cirsium arvense, Canada thistle); assay: as above; assay type: in vivo, Cirsium arvense (L.) Scop.; conditions: Cirsium arvense, post-emergence, foliar-applied, after 20-22 days, read-out: Weed Control CIRAR Obs
Method: as §7, §8, §9, §10, §11, §12

[4] = tested on: MATCH (Chamomilla chamomilla, scented mayweed); assay: as above; assay type: in vivo, Chamomilla chamomilla (L.) Rydb.
Method: as §7, §8, §9, §10, §11, §12

[5] = tested on: LAMPU (Lamium purpureum, purple deadnettle); assay: as above; assay type: in vivo, Lamium purpureum (L.); conditions: Table 57, after 20-22 days, 8.75 gai/ha Sulfosulfuron alone
Method: as §7, §8, §9, §10, §11, §12

[6] = tested on: VERPE (Veronica persica, bird's-eye speedwell); assay: as above; assay type: in vivo, Veronica persica Poir.; conditions: Table 57, after 20-22 days, 8.75 gai/ha Sulfosulfuron alone
Method: as §7, §8, §9, §10, §11, §12

[7] = tested on: DIGSA (Digitaria sanguinalis, large crabgrass); assay: Postemergence foliar-applied weed control, direct seeded rice, greenhouse (Example I); assay type: in vivo, Digitaria sanguinalis (L.) Scop.; conditions: 20 DAA; 8.75 gai/ha
Procedure, shortened: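 Greenhouse-grown plants (14 h photoperiod, 29/26 °C day/night) at first to fourth true leaf stage sprayed overhead at 187 L/ha with Compound A (acid equivalent basis) alone or mixed with sulfonylurea ALS inhibitors (active ingredient basis). Final spray contained 1.25% v/v crop oil concentrate; controls received solvent blank.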

[8] = tested on: CYPES (Cyperus esculentus, yellow nutsedge); assay: as above; assay type: in vivo, Cyperus esculentus L.; conditions: 20 DAA
Text: as §1, §2, §3, §4, §5, §6

[9] = tested on: LEFCH (Leptochloa chinensis, Chinese sprangletop); assay: In-water applied weed control, transplanted paddy rice, greenhouse (Example II); assay type: in vivo, Leptochloa chinensis (L.) Nees
Method: (§13) Weed seeds or nutlets of the desired test plant species were planted in puddled soil (mud) prepared by mixing a shredded, non-sterilized mineral soil (50.5 percent silt, 25.5 percent clay, and 24 percent sand, with a pH of about 7.6 and an organic matter content of about 2.9 percent) and water at a 1:1 volumetric ratio. The prepared mud was dispensed in 365 mL aliquots into 16-ounce (oz.) non-perforated plastic pots with a surface area of 86.59 square centimeters (cm^2) leaving a headspace of 3 centimeters (cm) in each pot. Rice seeds were planted in Sun Gro MetroMix® 306 planting mixture, which typically has a pH of 6.0 to 6.8 and an organic matter content of about 30 percent, in plastic plug trays. Seedlings at the second or third leaf stage of growth were transplanted into 860 mL of mud contained in 32-oz. non-perforated plastic pots with a surface area of 86.59 cm^2 4 days prior to herbicide application. The paddy was created by filling the headspace of the pots with 2.5 to 3 cm of water. When required to ensure good germination and healthy plants, a fungicide treatment and/or other chemical or physical treatment was applied. The plants were grown for 4-22 days in a greenhouse with an approximate 14 h photoperiod which was maintained at about 29′C during the day and 26° C. during the night. Nutrients were added as Osmocote® (19:6:12, N:P:K+minor nutrients) at 2 g per 16-oz. pot and 4 g per 32-oz. pot. Water was added on a regular basis to maintain the paddy flood, and supplemental lighting was provided with overhead metal halide 1000-Watt lamps as necessary. The plants were employed for testing when they reached the first through fourth true leaf stage.
(§14) Treatments consisted of the acid or esters of 4-amino-3-chloro-5-fluoro-6-(4-chloro-2-fluoro-3-methoxy-phenyl)pyridine-2-carboxylic acid (compound A) each formulated as an SC and various herbicidal components alone and in combination. Forms of compound A were applied on an acid equivalent basis.
(§15) Other herbicidal components were applied on an active ingredient basis and included acetolactate synthase (ALS)-inhibiting herbicides (sulfonylurea chemical class), azimsulfuron formulated as Gulliver®, bensulfuron-methyl formulated as Londax® 60DF, cyclosulfamuron (technical grade materail), ethoxysulfuron formulated as Sunrice® 15 WDG, flucetosulfuron formulated as Sukedachi® 1KG G, imazosulfuron formulated as Brazzos®, metsulfuron-methyl formulated as Lorate®, nicosulfuron formulated as Accent®, orthosulfamuron formulated as Strada® WG, propyrisulfuron formulated as Zeta One®, and rimsulfuron formulated as Matrix® WG.
(§16) Treatment requirements for each compound or herbicidal component were calculated based upon the rates being tested, the concentration of active ingredient or acid equivalent in the formulation, an application volume of 2 mL per component per pot, and an application area of 86.59 cm^2 per pot.
(§17) For formulated compounds, a measured amount was placed in an individual 100 or 200 mL glass vial and was dissolved in a volume of 1.25% (v/v) Agri-Dex® crop oil concentrate to obtain application solutions.
(§18) For technical grade compounds, a weighed amount was placed in an individual 100 to 200 mL glass vial and was dissolved in a volume of acetone to obtain concentrated stock solutions. […] The concentrated stock solutions obtained were diluted with an equivalent volume of an aqueous mixture containing 2.5% (v/v) crop oil concentrate so that the final application solutions contained 1.25% (v/v) crop oil concentrate.
(§19) Applications were made by injecting with a pipetter appropriate amounts of the application solutions, individually and sequentially, into the aqueous layer of the paddy. Control plants were treated in the same manner with the solvent blank. Applications were made so that all treated plant material received the same concentrations of acetone and crop oil concentrate. […]

[10] = tested on: CYPRO (Cyperus rotundus, purple nutsedge); assay: as above; assay type: in vivo, Cyperus rotundus L.
Method: as §13, §14, §15, §16, §17, §18, §19

[11] = tested on: ECHCG (Echinochloa crus-galli, barnyardgrass); assay: as above; assay type: in vivo, Echinochloa crus-galli (L.) Beauv.
Method: as §13, §14, §15, §16, §17
For technical grade compounds, a weighed amount was placed in an individual 100 to 200 mL glass vial and was dissolved in a volume of acetone to obtain concentrated stock solutions. […]

[12] = Table 54, after 20-22 days, 2.5 gai/ha alone

COC(=O)c1ccc(I)cc1S(=O)(=O)[N-]C(=O)Nc1nc(C)nc(OC)n1.[Na+] [Iodosulfuron-methyl sodium, methyl 4-iodo-2-[[[[(4-methoxy-6-methyl-1,3,5-triazin-2-yl)amino]carbonyl]amino]sulfonyl]benzoate, sodium salt, reference compound]
Visual Weed Control (%) Obs ([1]; 21 DAA, 2.5 gai/ha): 90%
Visual Weed Control (%) Obs ([1]; 21 DAA, 5 gai/ha): 95%
Weed Control VIOTR Obs [2, 12]: 82%
pest or weed control at 2.5 g/ha ([3]; Table 54, 2.5 gai/ha alone): 60%
Weed Control MATCH Obs [4, 12]: 94%

COc1nc(C)nc(NC(=O)NS(=O)(=O)c2ccccc2Cl)n1 [Chlorsulfuron]
Weed Control VIOTR Obs ([2]; Table 52, after 20-22 days, 2.2 gai/ha alone): 70%
pest or weed control at 2.2 g/ha ([3]; Table 52, 2.2 gai/ha alone): 78%

CCS(=O)(=O)c1nc2ccccn2c1S(=O)(=O)NC(=O)Nc1nc(OC)cc(OC)n1 [Sulfosulfuron]
Weed Control LAMPU Obs [5]: 5%
Weed Control VERPE Obs [6]: 35%
pest or weed control at 8.75 g/ha ([3]; Table 57, 8.75 gai/ha Sulfosulfuron alone): 70%
Weed Control MATCH Obs ([4]; Table 57, after 20-22 days, 8.75 gai/ha Sulfosulfuron alone): 95%

CCS(=O)(=O)c1cccnc1S(=O)(=O)NC(=O)Nc1nc(OC)cc(OC)n1 [Rimsulfuron, N-[[(4,6-dimethoxy-2-pyrimidinyl)amino]carbonyl]-3-(ethylsulfonyl)-2-pyridinesulfonamide, reference compound]
Visual Weed Control (%) Obs ([1]; 20 DAA, 4.38 gai/ha): 60%
Visual Weed Control (%) Obs ([1]; 20 DAA, 8.75 gai/ha): 75%
Visual Weed Control (%) Obs [7]: 70%
Visual Weed Control (%) Obs ([8]; 2.19 gai/ha): 0%
Visual Weed Control (%) Obs ([8]; 4.38 gai/ha): 0%
Visual Weed Control (%) Obs ([8]; 8.75 gai/ha): 60%
Visual Weed Control (%) - 20 DAA LEFCH Obs ([9]; Table 49, 4.38 gai/ha alone): 0%
Visual Weed Control (%) - 20 DAA LEFCH Obs ([9]; Table 50, 4.38 gai/ha alone): 0%
Visual Weed Control (%) - 20 DAA LEFCH Obs ([9]; Table 50, 8.75 gai/ha alone): 30%
Visual Weed Control (%) - 20 DAA CYPRO Obs ([10]; Table 49, 4.38 gai/ha alone): 0%
Visual Weed Control (%) - 20 DAA CYPRO Obs ([10]; Table 50, 4.38 gai/ha alone): 0%
Visual Weed Control (%) - 20 DAA ECHCG Obs ([11]; Table 50, 4.38 gai/ha alone): 0%
Visual Weed Control (%) - 20 DAA ECHCG Obs ([11]; Table 50, 8.75 gai/ha alone): 0%
